Patent publication US8957024B2, “Composition and methods for reducing opioid-induced pruritus” (priority 2011, dated 2015)
“Also recorded” adds a separate entry of the source.

What was measured:
[1] = tested on: mice; test: Gastrin-releasing peptide induced scratching (GIS); format: in vivo, mouse
[2] = tested on: mice; conditions: mouse, in vivo
[3] = tested on: HEK 293 cells expressing MOR1D alone; test: Calcium imaging, cells expressing MOR1D alone; format: cell-based, mouse
[4] = tested on: HEK 293 cells containing only GRPR; test: Calcium imaging, cells containing only GRPR; format: cell-based, mouse
[5] = tested on: mice; conditions: mouse, in vivo; remark: listed apart in the source
[6] = target: T1, Myc-GRPR (Mus musculus, UniProt P21729); test: Receptor internalization assay (ELISA, immunofluorescence staining) in HEK 293 cells: GRPR; format: cell-based; conditions: agonist 1 μM, 30 min
T1 construct: expressed in transfected cells
T1 sequence (P21729 whole entry): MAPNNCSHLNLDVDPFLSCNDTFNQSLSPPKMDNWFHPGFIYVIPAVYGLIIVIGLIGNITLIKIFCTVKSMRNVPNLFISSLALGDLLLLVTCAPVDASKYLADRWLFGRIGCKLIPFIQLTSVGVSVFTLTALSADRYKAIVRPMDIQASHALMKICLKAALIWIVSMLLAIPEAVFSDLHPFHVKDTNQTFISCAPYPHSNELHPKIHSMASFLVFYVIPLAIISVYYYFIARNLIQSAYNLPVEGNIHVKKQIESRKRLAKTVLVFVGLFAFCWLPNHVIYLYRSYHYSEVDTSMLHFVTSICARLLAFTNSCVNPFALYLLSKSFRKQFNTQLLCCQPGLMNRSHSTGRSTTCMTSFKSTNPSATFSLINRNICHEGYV

[7] = tested on: mice; test: Von Frey assay, naive mice and CFA inflammatory pain model; format: in vivo, mouse
Protocol: In CFA induced inflammatory pain, mice received an injection of CFA (20 μl, Sigma) into the plantar of the right hindpaw. Mechanical sensitivity was assessed using von Frey assay.
Mechanical sensitivity was assessed using a set of calibrated von Frey filaments (Stoelting). Each filament was applied 5 consecutive times and the smallest filament that evoked reflexive flinches of the paw on 3 of the 5 trials was taken as paw withdrawal threshold.

[8] = tested on: MOR1D mRNA; test: qRT-PCR after i.t. siRNA: MOR1D mRNA; format: in vivo, mouse; conditions: spinal cord
Protocol: (§1) Selective siRNA duplexes for mouse Oprm exons, PLCβ1/3 and IP3R3 were intrathecally injected daily for 3 consecutive days. Behavior testing and tissue harvest were carried out at 48 hr after the last injection. RNA was dissolved in diethyl pyrocarbonate-treated PBS and prepared immediately prior to administration by mixing the RNA solution with a transfection reagent, ExGen 500 (Fermentas). The final concentration of RNA was 1.25 μg/5 μl. siRNA or ExGen 500 alone (defined as vehicle) in 5 μl was delivered to the lumbar region of the spinal cord. The injection was given daily for 3 consecutive days (Luo et al., 2005; Tan et al., 2009). Behavior testing and tissue harvest were carried out 48 hr after the last injection.
(§2) LCM were performed as previously described (van Baarlen et al., 2009) with minor modifications. Frozen sections (30 μm thickness) of the lumber spinal cord were cut at −20° C. and stored at −80° C. […]
(§3) RNA was isolated from the LCM sample caps using the PicoPure RNA isolation kit (Arcturus) following manufacturer's recommendations. […] Quantitative PCR amplification was performed in 96-well plates on an Mx3000 QPCR system (Stratagene). […]
(§4) Expression of target mRNA was normalized to expression of 18S rRNA. The differences in mRNA expression between treatments were analyzed using the Comparative CT Method (Gallup et al., 2005). […]

[9] = target: T2, GRPR/MOR1D interaction (Mus musculus, UniProt P21729); conditions: in vivo
T2 construct: co-IP analysis using the membrane extracts of the spinal cord injected with Tat-MOR1DCT and the vehicle; from tissue; host or cells: lumbar spinal cord membrane extract after intrathecal injection
T2 sequence (P21729 whole entry): as above

[10] = target: T3, HA-MOR1D (Mus musculus, UniProt P42866); test: Receptor internalization assay (ELISA, immunofluorescence staining) in HEK 293 cells: MOR1D; format: cell-based; conditions: HEK 293 cells expressing MOR1D, or MOR1D and GRPR; agonist 1 μM
T3 construct: expressed in transfected cells

[11] = tested on: HEK 293 cells co-expressing MOR1 and GRPR; test: Calcium imaging, cells co-expressing MOR1 and GRPR; format: cell-based, mouse
[12] = target: T4, HA-MOR1 (Mus musculus, UniProt P42866); test: Receptor internalization assay (ELISA, immunofluorescence staining) in HEK 293 cells: MOR1; format: cell-based; conditions: HEK 293 cells expressing MOR1 only, or MOR1 and GRPR; agonist 1 μM
T4 construct: expressed in transfected cells

[13] = tested on: MOR1 mRNA; test: qRT-PCR after i.t. siRNA: MOR1 mRNA; format: in vivo, mouse; conditions: spinal cord
Protocol: as §1, §2, §3, §4

[14] = HEK 293 cells expressing GRPR alone

C=CCN1CC[C@]23c4c5ccc(O)c4O[C@H]2C(=O)CC[C@@]3(O)[C@H]1C5 [naloxone]
effect on GIS ([1]; naloxone 3 mg/kg s.c.): did not change GIS; also recorded: not significantly affected

2-APB
effect on MIA [2]: no effect on MIA

CN1CC[C@]23c4c5ccc(O)c4O[C@H]2[C@@H](O)C=C[C@H]3[C@H]1C5 [morphine]
calcium response to agonist [3]: neither morphine nor GRP generated a calcium response
calcium response to agonist [4]: failed to evoke Ca2+ spikes
time after which no scratches were seen [5]: 40 min
time within which MIS increased dramatically [5]: ≤ 10 min
agonist-induced GRPR internalization ([6]; HEK 293 cells co-expressing MOR1 and GRPR): failed to induce GRPR internalization; also recorded: when co-expressed with HA-MOR1D but not HA-MOR1
agonist-induced GRPR internalization [6, 14]: failed to induce GRPR internalization
MIA enhancement when the morphine dose increased from 0.3 nmol to 1.0 nmol [2]: 81%
MIA in mice with acute morphine tolerance [2]: significant reduction of MIA relative to the saline control
MIA in mice with chronic morphine tolerance [2]: significant reduction of MIA relative to the saline control; also recorded: showed antinociceptive tolerance
MIA, dose effect of i.t. morphine [2]: increased in a dose-dependent manner
duration of MIA [2]: maintained at a maximal level for at least one hr
mechanical threshold in CFA-treated mice ([7]; i.t. morphine 0.3 nmol, 24 hr after intraplantar CFA): significantly increased mechanical threshold

UGAGGAACCUUCUUCCUGAuu (UGAGGAACCUUCUUCCUGAUU; chemistry not given here) [exon 9 siRNA, siRNA duplex for mouse Oprm exon 9]
spinal MOR1D mRNA level [8]: significantly reduced
effect of siRNA knockdown on MIA [2]: had no effect on MIA
effect of siRNA knockdown on GIS ([1]; mouse, in vivo): no significant reduction of GIS; also recorded: not affected

COC(=O)/C=C/C(=O)N[C@@H]1CC[C@@]2(O)[C@H]3Cc4ccc(O)c5c4[C@@]2(CCN3CC2CC2)[C@H]1O5 [beta-FNA]
effect on MIS [5]: significantly blocked

YGRKKRRQRRRRNEEPSS [Tat-MOR1DCT]
effect on MIA [2]: unperturbed; also recorded: had no effect on MIA
amount of GRPR precipitated by MOR1D antibody (GRPR/MOR1D interaction) [9]: significantly reduced the amount of GRPR precipitated by MOR1D antibody; also recorded: markedly reduces co-immunoprecipitation of GRPR and MOR1D; also recorded: decreased GRPR/MOR1D interaction
effect on GIS ([1]; mouse, in vivo): unperturbed; also recorded: without affecting GIS

AAACCCUGCAAGAGUUGCAuu (AAACCCUGCAAGAGUUGCAUU; chemistry not given here) [exon 7 siRNA, siRNA duplex for mouse Oprm exon 7]
effect of siRNA knockdown on MIA [2]: had no effect on MIA

D-Phe-6-Bn(6-13)OMe [GRPR antagonist]
effect of the agent itself on acute pain, tail immersion assay [2]: no significant effect on acute pain; also recorded: did not significantly affect the acute pain
effect on MIA [2]: remained unchanged; also recorded: not significantly affected
effect on analgesic effect of intrathecal morphine in CFA model ([7]; GRPR antagonist 1.0 nmol co-injection, morphine 0.3 nmol i.t.): not significantly affected
effect of the agent itself on acute pain, von Frey ([7]; i.t., without morphine): no significant effect on acute pain; also recorded: did not significantly affect the acute pain

gastrin-releasing peptide [GRP]
calcium response to agonist [3]: neither morphine nor GRP generated a calcium response
agonist-induced MOR1D internalization [10]: neither MOR1D nor MOR1 internalized; also recorded: failed to cause MOR1D internalization
calcium response to agonist [11]: they responded to GRP
agonist-induced MOR1 internalization [12]: neither MOR1D nor MOR1 internalized
GIS in MOR KO vs wild-type littermate mice ([1]; i.t. GRP): normal; also recorded: comparable

C[C@@H](NC(=O)[C@@H](N)Cc1ccc(O)cc1)C(=O)NCC(=O)N(C)[C@@H](Cc1ccccc1)C(=O)NCCO [DAMGO]
agonist-induced MOR1D internalization [10]: can be internalized
agonist-induced GRPR internalization [6, 14]: cannot internalize GRPR
agonist-induced MOR1 internalization [12]: can be internalized

UCUGGAAGCAGAAACUGCUuu (UCUGGAAGCAGAAACUGCUUU; chemistry not given here) [exon 4 siRNA, siRNA duplex for mouse Oprm exon 4]
spinal MOR1 mRNA level [13]: selectively decreased; also recorded: significantly knocked down
effect of siRNA knockdown on MIA [2]: markedly attenuated MIA; also recorded: significantly reduced morphine analgesic effect

COc1ccc2c(c1)CC[C@@H]1[C@@H]2CC[C@]2(C)[C@@H](NCCCCCCN3C(=O)C=CC3=O)CC[C@@H]12 [U73122]
effect on MIA [2]: did not impact MIA; also recorded: not significantly affected
